From US6379959B1, “Metalocarboxypeptidase inhibitors and derived molecules used as antitumor agents” (Universitat Autonoma de Barcelona, priority 1996, dated 2002) come the findings set out here.

“And” between values parts separate entries of the source, which are not always exact repeats. Equal entries are not always repeated. Positions of bridges follow the written chain, without caps; N, C: chain ends. No end group written: not given here.

Data set [1] relates to human pancreatic adenocarcinoma cell line Capan-1. In words: Apoptosis by DAPI labeling and fluorescence microscope. Type of data set: cell-based. As to the method: The studies of possible induction of apoptosis by the PCI were done with the human pancreatic adenocarcinoma cell line Capan-1. The detailed procedure that was employed is as follows:
1. 5×10^5 cells were seed in the chambers/slides and were cultured for 3 o 4 days (until the moment in which, through microscope observation, they presented 75% of confluence). The cells were cultured in DMEM+10% FBS.
2. […] A positive control was added, cysplatinum, at a concentration of 10 μg/mL (a drug which induces apoptosis in various tumor cell lines, Borner, M. M., et al. (1995) Cancer Res., 55: 2122-2128. The incubation period was 24 h.
3. The medium was removed after incubation and the chamber was washed with 2 mL of PBS.
5. Cells were fixed with 2 mL of 2% formaldehyde for 20 min at 4° C.
6. The plates were washed again with 2 mL of PBS for 5 min at room temperature.
7. Cell membranes were permeabilized with 0.25% Triton ×100 in PBS for 5 min at 4° C.
8. Washed with PBS for 5 min at room temperature.
9. The cells were labeled with DAPI at a final concentration of 2 μg/mL for 50 min in darkness at room temperature.
10. The preparation was fitted with the fluoroprep medium and it was examined through the fluorescence microscope.
% apoptosis=(number of apoptotic cells/total number of cells)×100

Data set [2] has as its system β2-microglobuline. In words: Gene expression analysis by Northern transfer, β2-microglobuline probe. In kind it is cell-based, human. The note with it: 12 days, Capan-1 (control 955). As to the method:
To verify whether the PCI plays any role in signal transduction, studies of gene expression were carried out by Northern transfer. The probes were: β2-microglobulin, p53 and trypsin. The β2-microglobulin is a constitutive gene that is used as a sample loading control in the gel. p53 is a transcription factor which, among other functions, controls the state of the genomic DNA and the cell cycle (Bates, S. & Vousden, K. H. (1996) Curr. Opin. Genet. Develop., 6: 12-19). If the DNA is damaged, p53 induces its repair and, if it is excessively damaged, it provokes programmed cellular death (apoptosis). Trypsin is a marker of pancreatic cells of the acinar type. The trypsin is not expressed by all the tumoral cells and it is believed that it is expressed by the cells with metastatic power and/or invasive power (Fernández, E. et al., (1994) Cancer, 73: 2285-2295). The probes employed are described as follows:
In the first place, 3×10^6 cells of the human pancreatic adenocarcinoma cell line Capan-1 were placed in each one of the 12 flasks of 150 cm^2. […] They were maintained in culture for 12 days period, changing their medium every 4 days, adding fresh PCI. […]
The quantifying of the hybridized filters with the respective probes was done using a Betascope 601 blot Analyzer counter (Betagen, USA). […]

In data set [3] the target is EGF receptor (Homo sapiens, UniProt P00533). Kind of data set: Kinase activity (phosphorilation) of the EGF receptor, A431 cells. In kind it is cell-based. Set-up: endogenous in cells; host or cells: A431 (squamous cancer cell line). As to the method: The material and protocol used have been those described by Donato, N. J. et al. (1989) J. Cell. Biochem., 41: 139-157.
1.c. Wash the cells twice more with tempered PBS and add new serum-free medium. Immediately after, add PCI to the concentration which is going to be studied in the cultures to be treated and incubate for 10 min at 37° C.
2.a. […] Incubate for 1 h in ice.
3.a. Prepare the reaction buffer. Each sample requires 50μL.
3.k. Dry the gel (for at least 3 h) and autoradiograph it for 10 min for the A431 cell line and 2-4 h for the Capan-1 cell line. Count the radiactivity of the filter using a beta counter.
The kinase activity in absence of PCI (basal) is taken as 100% and the values of kinase activity have been compared in various concentrations of PCI in relation to this basal activity.

On to “PCI: potato carboxypeptidase inhibitor, isoform IIa, obtained by recombinant DNA techniques in E. coli (SEQ ID NO.2) (EQHADPICNKPCKTHDDCSGAWFCQACWNSARTCGPYVG; disulfide 12-27, 18-34, 8-24)”, for which the “% Apoptosis” value in data set [1] (0,1 mg/mL PCI, 24 h (negative control 0.08)) is on record as 0.11%; in data set [1] (10 mg/mL PCI, 24 h) it was 0.095%; in data set [1] (50 mg/mL PCI, 24 h), 0.41%; in data set [1] (200 mg/mL PCI, 24 h) it was 0.038%. In addition, in data set [1] (PCI 50 μg/mL, 24 h), the “index of apoptosis relative to the control” value came out at 5 times. Besides, the entries for the “beta counts, β2-microglobuline probe” value in data set [2] (1 mg/mL PCI) and in data set [2] (10 mg/mL PCI) were 2183 and 6287, respectively. In addition, the “Kinase activity (%)” value in data set [3] (1 ng/ml EGF + 1 mg/mL PCI) was 126%; in data set [3] (1 ng/ml EGF + 10 mg/mL PCI) it was 108%; in data set [3] (1 ng/ml EGF + 50 mg/mL PCI), 53%; in data set [3] (basal, incubation with PCI 1 mg/mL, 10 min, 100% = absence of PCI), 68%; in data set [3] (basal, incubation with PCI 50 mg/mL, 10 min, 100% = absence of PCI), 78% and 61% and 80% and 77%; in data set [3] (basal, incubation with PCI 100 mg/mL, 10 min, 100% = absence of PCI), 29%. In addition, the “kinase activity of the receptor under EGF” value in data set [3] (highest dose of PCI, 50 μg/mL, with EGF) is “reduced to half the basal activity”.
